Where a name gives a salt, the structure may show the parent alone.
Tests used:
human FLAP = human FLAP (Homo sapiens (Human), UniProt P20292); assay: FLAP binding assay (HTRF format); details: human FLAP-containing Sf-9 membranes, wild type; average of runs
Experimental: (§1) The ability of the compounds of the present invention to treat a FLAP-mediated disease and/or disorder, or associated symptoms or complications thereof, was determined using the following procedures. Binding assay data represent the average value obtained from two different assay plates, with samples run in duplicate on each plate. Human whole blood assay data represent a single replicate on an assay plate using whole blood from at least one healthy donor.
The assay below is used to test the modulatory activity of compounds against FLAP. Human and mouse FLAP-encoding DNA was amplified by polymerase chain reaction and cloned into pFastBac1 (Invitrogen) with a NH2-terminal 6-His tag for expression in Spodoptera frugiperda (Sf-9) cells. FLAP-containing membranes were prepared as was a FITC-labeled FLAP modulator (3-(3-(tert-butylthio)-1-(4-chlorobenzyl)-5-(quinolin-2-ylmethoxy)-1H-indol-2-yl)-2,2-dimethylpropanoic acid). The FLAP binding assay is performed in HTRF format (homogeneous time resolved fluorescence). […] The reaction is allowed to proceed for two hours after which the plate is read on an Envision plate reader in HTRF mode. Data are expressed as a HTRF ratio.
For human FLAP binding assays, data are analyzed with 3DX Explorer software. […] For analysis, data from multiple runs are averaged and each compound may be tested in 2 to 20 runs. Each run comprises two plates and each plate includes duplicates. Data from each plate is averaged and data are imported into 3DX. The data from multiple runs are aggregated as the average of duplicates of the calculated ratios in order to calculate Ki and IC50 values. Numbers in parentheses are the number of runs for the assay.

[1] = test system: leukotriene pathway in human whole blood; assay: Human whole blood assay (LTB4, A23187-stimulated); format: cell-based; details: human whole blood diluted 1:1 in RPMI, calcium ionophore A23187 7 μg/mL, 30 min
Experimental: as §1
An in vitro cellular assay was performed using human whole blood collected in heparin-containing tubes, which was used to test the ability of compounds to modulate the leukotriene pathway in human whole blood. The blood was diluted 1:1 in RPMI medium, pre-incubated for 15 min at 37° Celsius with test compounds at various concentrations, and then stimulated with calcium ionophore, A23187 (7 μg/mL), for 30 min at 37° Celsius. The samples were then centrifuged and plasma was removed. The plasma was diluted in assay buffer and LTB4 levels were measured using a commercial kit (Enzo Life Sciences). The concentration of each compound that was required for half-maximal inhibition (modulation) of […] (IC50) was calculated by a 4-parameter equation using the program GraphPad Prism (GraphPad software). For analysis, data are imported into 3DX and aggregated as the average of duplicates of the calculated ratios in order to calculate Ki and IC50 values. Numbers in parentheses are the number of runs for the assay.

human FLAP, sequence (P20292 whole entry): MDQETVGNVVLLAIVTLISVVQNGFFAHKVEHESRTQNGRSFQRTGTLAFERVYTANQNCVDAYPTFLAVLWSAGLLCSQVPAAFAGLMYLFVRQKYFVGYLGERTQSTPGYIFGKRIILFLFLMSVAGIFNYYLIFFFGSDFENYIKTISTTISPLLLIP

| SMILES | Ki (human FLAP) [nM] | IC50 ([1]; Homo sapiens, 0.5 h) [nM] | IC50 [1] [nM] |
| --- | --- | --- | --- |
| Cn1ccc(COc2cc(F)c3nc(C4CCCC[C@H]4C(=O)O)n(Cc4ccc(N5CCC(F)(F)C5)cc4)c3c2)n1 (mixture of isomers) [Example 236, racemic cis-2-{1-[4-(3,3-Difluoropyrrolidin-1-yl)benzyl]-4-fluoro-6-[(1-methyl-1H-pyrazol-3-yl)methoxy]-1H-benzimidazol-2-yl}cyclohexanecarboxylic acid] | 2.4 | 1650 |  |
| Cc1ccc(COc2cc(F)c3nc(CC4(C(=O)O)CCCC4)n(Cc4cccc(Br)c4)c3c2)nc1 [Example 230, 1-({1-(3-Bromobenzyl)-4-fluoro-6-[(5-methylpyridin-2-yl)methoxy]-1H-benzimidazol-2-yl}methyl)cyclopentanecarboxylic acid as the trifluoroacetic salt] | 73 | > 30000 |  |
| Cc1cnc(COc2ccc3nc(C4CCCC[C@H]4C(=O)O)n(Cc4ccc(N5CCC(C(F)(F)F)CC5)cc4F)c3c2)c(F)c1 (mixture of isomers) [Example 192, racemic cis-2-(6-[(3-Fluoro-5-methylpyridin-2-yl)methoxy]-1-{2-fluoro-4-[4-(trifluoromethyl)piperidin-1-yl]benzyl}-1H-benzimidazol-2-yl)cyclohexanecarboxylic acid] | 0.95 | 110 |  |
| Cc1ccc(COc2ccc3nc(C4CCCC[C@H]4C(=O)O)n(Cc4cccc(N5CCC(F)(F)CC5)c4)c3c2)nc1 (mixture of isomers) [Example 221, racemic cis-2-{1-[3-(4,4-Difluoropiperidin-1-yl)benzyl]-6-[(5-methylpyridin-2-yl)methoxy]-1H-benzimidazol-2-yl}cyclohexanecarboxylic acid] | 6.6 | 500 |  |
| COc1ncc(-c2cccc(Cn3c(C4CCCC[C@H]4C(=O)O)nc4ccc(OCc5ccc(C)cn5)cc43)c2)cn1 (mixture of isomers) [Example 195, racemic cis-2-{1-[3-(2-Methoxypyrimidin-5-yl)benzyl]-6-[(5-methylpyridin-2-yl)methoxy]-1H-benzimidazol-2-yl}cyclohexanecarboxylic acid] | 19 | 1430 |  |
| Cc1ccc(COc2ccc3nc(C4CCCC[C@H]4C(=O)O)n(Cc4cc(N5CCC(F)(F)CC5)ccc4F)c3c2)nc1 (mixture of isomers) [Example 208, racemic cis-2-{1-[5-(4,4-Difluoropiperidin-1-yl)-2-fluorobenzyl]-6-[(5-methylpyridin-2-yl)methoxy]-1H-benzimidazol-2-yl}cyclohexanecarboxylic acid] | 9.5 | 370 |  |
| Cn1ccc(COc2ccc3nc(C4CCCC[C@H]4C(=O)O)n(Cc4cccc(Br)c4)c3c2)n1 (single isomer, unassigned) [Example 197, (1S*,2R*)-2-{1-(3-Bromobenzyl)-6-[(1-methyl-1H-pyrazol-3-yl)methoxy]-1H-benzimidazol-2-yl}cyclohexanecarboxylic acid] | 6.6 | 1810 |  |
| CCC(CC)(Cc1nc2ccc(OCc3ccc(C)cn3)cc2n1Cc1ccc(N2CCC(F)(F)C2)cc1)C(=O)O [Example 226, 2-({1-[4-(3,3-Difluoropyrrolidin-1-yl)benzyl]-6-[(5-methylpyridin-2-yl)methoxy]-1H-benzimidazol-2-yl}methyl)-2-ethylbutanoic acid] | 17 | ~3200 |  |
| Cn1ccc(COc2ccc3nc(C4CCCC[C@H]4C(=O)O)n(Cc4cccc(N5CC(F)(F)C5)c4)c3c2)n1 (mixture of isomers) [Example 205, racemic cis-2-{1-[3-(3,3-Difluoroazetidin-1-yl)benzyl]-6-[(1-methyl-1H-pyrazol-3-yl)methoxy]-1H-benzimidazol-2-yl}cyclohexanecarboxylic acid as the trifluoroacetic acid salt] | 21 | 1670 |  |
| Cc1ccc(COc2cc(F)c3nc(CC4(C(=O)O)CCCC4)n(Cc4ccccc4Br)c3c2)nc1 [Example 231, 1-({1-(2-Bromobenzyl)-4-fluoro-6-[(5-methylpyridin-2-yl)methoxy]-1H-benzimidazol-2-yl}methyl)cyclopentanecarboxylic acid as the trifluoroacetic salt] | 180 | > 30000 |  |
| CCC(CC)(Cc1nc2ccc(OCc3ncc(C)cc3F)cc2n1Cc1ccc(N2CCC(C(F)(F)F)CC2)cc1)C(=O)O [Example 194, 2-Ethyl-2-[(6-[(3-fluoro-5-methylpyridin-2-yl)methoxy]-1-{4-[4-(trifluoromethyl)piperidin-1-yl]benzyl}-1H-benzimidazol-2-yl)methyl]butanoic acid] | 5.7 | 580 |  |
| Cc1ccc(COc2ccc3nc(C4CCCC[C@H]4C(=O)O)n(Cc4ccccc4C)c3c2)nc1 (mixture of isomers) [Example 207, racemic cis-2-{1-(2-Methylbenzyl)-6-[(5-methylpyridin-2-yl)methoxy]-1H-benzimidazol-2-yl}cyclohexanecarboxylic acid] | 31 |  | 1810 |
| Cc1ccc(COc2ccc3nc(C4CCCC[C@H]4C(=O)O)n(Cc4cccc(N5CCCC(F)(F)C5)c4)c3c2)nc1 (mixture of isomers) [Example 222, racemic cis-2-{1-[3-(3,3-Difluoropiperidin-1-yl)benzyl]-6-[(5-methylpyridin-2-yl)methoxy]-1H-benzimidazol-2-yl}cyclohexanecarboxylic acid] | 3.8 | 310 |  |
| Cn1ccc(COc2ccc3nc(C4CCCC[C@H]4C(=O)O)n(Cc4cc(Br)ccc4F)c3c2)n1 (mixture of isomers) [Example 233, racemic cis-2-{1-(5-Bromo-2-fluorobenzyl)-6-[(1-methyl-H-pyrazol-3-yl)methoxy]-1H-benzimidazol-2-yl}cyclohexanecarboxylic acid] | 35 | 2260 |  |
| Cn1ccc(COc2ccc3nc(C4CCCC[C@H]4C(=O)O)n(Cc4cccc(N5CCCCC5)c4)c3c2)n1 (mixture of isomers) [Example 204, racemic cis-2-{6-[(1-Methyl-1H-pyrazol-3-yl)methoxy]-1-(3-piperidin-1-ylbenzyl)-1H-benzimidazol-2-yl}cyclohexanecarboxylic acid] | 31 | 240 |  |
| Cc1ccc(COc2ccc3nc(C4CCCC[C@H]4C(=O)O)n(Cc4cc(N5CCCCC5)ccc4F)c3c2)nc1 (mixture of isomers) [Example 209, racemic cis-2-{1-(2-Fluoro-5-piperidin-1-ylbenzyl)-6-[(5-methylpyridin-2-yl)methoxy]-1H-benzimidazol-2-yl}cyclohexanecarboxylic acid] | 3.8 | 150 |  |
| Cc1ccc(COc2ccc3nc(C4CCCC[C@H]4C(=O)O)n(Cc4cccc(C)c4)c3c2)nc1 (mixture of isomers) [Example 201, racemic cis-2-{1-(3-Methylbenzyl)-6-[(5-methylpyridin-2-yl)methoxy]-1H-benzimidazol-2-yl}cyclohexanecarboxylic acid] | 12 |  | 1680 |
| Cn1ccc(COc2ccc3nc(C4CCCC[C@H]4C(=O)O)n(Cc4cccc(N5CCC(F)(F)CC5)c4)c3c2)n1 (mixture of isomers) [Example 203, racemic cis-2-{1-[3-(4,4-Difluoropiperidin-1-yl)benzyl]-6-[(1-methyl-1H-pyrazol-3-yl)methoxy]-1H-benzimidazol-2-yl}cyclohexanecarboxylic acid] | 18 | 730 |  |

From US9695149B2, “1,2,6-substituted benzimidazoles as flap modulators” (JANSSEN PHARMACEUTICA NV, priority 2013, dated 2017)
